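The compound was tested at five concentrations on cells cultured in 96-well plates, with a 48-hour exposure period. GI50 marks 50% less growth.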 Calls of active or inactive are those of the source. Rule as the data show it: active = GI50 up to about 1.1 µM and inactive = higher.
Experiments:
Assay in all cases: NCI tumour cell line growth inhibition, 48 h
A498 = system: A498
SK-MEL-2 = system: SK-MEL-2
SF-539 = system: SF-539
MCF7 = system: MCF7
RPMI-8226 = system: RPMI-8226
HOP-62 = system: HOP-62
SK-OV-3 = system: SK-OV-3
SK-MEL-5 = system: SK-MEL-5
OVCAR-3 = system: OVCAR-3
COLO 205 = system: COLO 205
HT-29 = system: HT-29
MDA-N = system: MDA-N
T47D = system: T47D
CAKI-1 = system: CAKI-1
BT-549 = system: BT-549
K562 = system: K562
HCC 2998 = system: HCC 2998
A549 = system: A549
786-0 = system: 786-0
OVCAR-4 = system: OVCAR-4
UACC-257 = system: UACC-257
Malme-3M = system: Malme-3M
UACC-62 = system: UACC-62
NCI/ADR-RES = system: NCI/ADR-RES
NCI-H23 = system: NCI-H23
SN12C = system: SN12C
PC-3 = system: PC-3
U-251 = system: U-251
Hs-578T = system: Hs-578T
SW-620 = system: SW-620
SR = system: SR
OVCAR-5 = system: OVCAR-5
SNB-19 = system: SNB-19
SK-MEL-28 = system: SK-MEL-28
KM12 = system: KM12
LOX IMVI = system: LOX IMVI
HL-60 = system: HL-60
OVCAR-8 = system: OVCAR-8
DU-145 = system: DU-145
HCT-15 = system: HCT-15
IGROV-1 = system: IGROV-1
SF-268 = system: SF-268
HOP-92 = system: HOP-92
MOLT-4 = system: MOLT-4
NCI-H460 = system: NCI-H460
MDA-MB-435 = system: MDA-MB-435
HCT-116 = system: HCT-116
ACHN = system: ACHN
RXF 393 = system: RXF 393
SNB-75 = system: SNB-75
CCRF-CEM = system: CCRF-CEM
M14 = system: M14
NCI-H226 = system: NCI-H226
MDA-MB-231 = system: MDA-MB-231
SF-295 = system: SF-295
NCI-H522 = system: NCI-H522
UO-31 = system: UO-31
TK-10 = system: TK-10
EKVX = system: EKVX

N=c1oc2ccccc2cc1C(=O)Nc1cccc2ccccc12
GI50 (A498): > 100 µM (inactive)
GI50 (SK-MEL-2): > 100 µM (inactive)
GI50 (SF-539): > 100 µM (inactive)
GI50 (MCF7): 83.2 µM (inactive)
GI50 (RPMI-8226): > 100 µM (inactive)
GI50 (HOP-62): 50 µM (inactive)
GI50 (SK-OV-3): > 100 µM (inactive)
GI50 (SK-MEL-5): > 100 µM (inactive)
GI50 (OVCAR-3): > 100 µM (inactive)
GI50 (COLO 205): > 100 µM (inactive)
GI50 (HT-29): > 100 µM (inactive)
GI50 (MDA-N): > 100 µM (inactive)
GI50 (T47D): > 100 µM (inactive)
GI50 (CAKI-1): > 100 µM (inactive)
GI50 (BT-549): > 100 µM (inactive)
GI50 (K562): > 100 µM (inactive)
GI50 (HCC 2998): > 100 µM (inactive)
GI50 (A549): > 100 µM (inactive)
GI50 (786-0): 80 µM (inactive)
GI50 (OVCAR-4): > 100 µM (inactive)
GI50 (UACC-257): > 100 µM (inactive)
GI50 (Malme-3M): 56.6 µM (inactive)
GI50 (UACC-62): > 100 µM (inactive)
GI50 (NCI/ADR-RES): > 100 µM (inactive)
GI50 (NCI-H23): > 100 µM (inactive)
GI50 (SN12C): > 100 µM (inactive)
GI50 (PC-3): > 100 µM (inactive)
GI50 (U-251): 82.4 µM (inactive)
GI50 (Hs-578T): > 100 µM (inactive)
GI50 (SW-620): > 100 µM (inactive)
GI50 (SR): > 100 µM (inactive)
GI50 (OVCAR-5): > 100 µM (inactive)
GI50 (SNB-19): > 100 µM (inactive)
GI50 (SK-MEL-28): > 100 µM (inactive)
GI50 (KM12): > 100 µM (inactive)
GI50 (LOX IMVI): > 100 µM (inactive)
GI50 (HL-60): > 100 µM (inactive)
GI50 (OVCAR-8): > 100 µM (inactive)
GI50 (DU-145): > 100 µM (inactive)
GI50 (HCT-15): > 100 µM
GI50 (IGROV-1): > 100 µM (inactive)
GI50 (SF-268): > 100 µM (inactive)
GI50 (HOP-92): > 100 µM (inactive)
GI50 (MOLT-4): > 100 µM (inactive)
GI50 (NCI-H460): > 100 µM (inactive)
GI50 (MDA-MB-435): > 100 µM (inactive)
GI50 (HCT-116): > 100 µM (inactive)
GI50 (ACHN): > 100 µM (inactive)
GI50 (RXF 393): > 100 µM (inactive)
GI50 (SNB-75): > 100 µM (inactive)
GI50 (CCRF-CEM): > 100 µM (inactive)
GI50 (M14): > 100 µM (inactive)
GI50 (NCI-H226): > 100 µM (inactive)
GI50 (MDA-MB-231): > 100 µM (inactive)

Cc1cc(-c2nc3cc(O)ccc3s2)ccc1N
GI50 (A498): 24.7 µM (inactive)
GI50 (SK-MEL-2): 28.4 µM (inactive)
GI50 (SF-539): 25.5 µM (inactive)
GI50 (MCF7): 17.6 µM (inactive)
GI50 (SF-295): 26 µM (inactive)
GI50 (HOP-62): 26.8 µM (inactive)
GI50 (SK-OV-3): 19.3 µM (inactive)
GI50 (SK-MEL-5): 22.5 µM (inactive)
GI50 (OVCAR-3): 23.5 µM (inactive)
GI50 (COLO 205): 21 µM (inactive)
GI50 (HT-29): 21.5 µM (inactive)
GI50 (MDA-N): 29.4 µM (inactive)
GI50 (T47D): 22.9 µM (inactive)
GI50 (CAKI-1): 34 µM (inactive)
GI50 (BT-549): 45.8 µM (inactive)
GI50 (K562): 38.5 µM (inactive)
GI50 (HCC 2998): 37.8 µM (inactive)
GI50 (A549): 37 µM (inactive)
GI50 (786-0): 37 µM (inactive)
GI50 (NCI-H522): 31 µM (inactive)
GI50 (OVCAR-4): 28 µM (inactive)
GI50 (UACC-257): 35.1 µM (inactive)
GI50 (Malme-3M): 45.7 µM (inactive)
GI50 (UO-31): 18.7 µM (inactive)
GI50 (UACC-62): 19.9 µM (inactive)
GI50 (NCI/ADR-RES): 38.1 µM (inactive)
GI50 (NCI-H23): 46.1 µM (inactive)
GI50 (SN12C): 28.8 µM (inactive)
GI50 (PC-3): 30.1 µM (inactive)
GI50 (U-251): 30.5 µM (inactive)
GI50 (Hs-578T): 35.2 µM (inactive)
GI50 (SW-620): 38 µM (inactive)
GI50 (SR): 32 µM (inactive)
GI50 (OVCAR-5): 24.7 µM (inactive)
GI50 (SNB-19): 33.7 µM (inactive)
GI50 (SK-MEL-28): 27.8 µM (inactive)
GI50 (TK-10): 38.9 µM (inactive)
GI50 (KM12): 23.2 µM (inactive)
GI50 (LOX IMVI): 45 µM (inactive)
GI50 (HL-60): 32.1 µM (inactive)
GI50 (OVCAR-8): 47.1 µM (inactive)
GI50 (DU-145): 39.8 µM (inactive)
GI50 (HCT-15): 41.2 µM
GI50 (IGROV-1): 33.4 µM (inactive)
GI50 (SF-268): 36.7 µM (inactive)
GI50 (HOP-92): 76.4 µM (inactive)
GI50 (MOLT-4): 96.2 µM (inactive)
GI50 (NCI-H460): 29 µM (inactive)
GI50 (MDA-MB-435): 33.3 µM (inactive)
GI50 (HCT-116): 22.8 µM (inactive)
GI50 (ACHN): 22.5 µM (inactive)
GI50 (RXF 393): 27.5 µM (inactive)
GI50 (SNB-75): 23.7 µM (inactive)
GI50 (CCRF-CEM): 27.7 µM (inactive)
GI50 (EKVX): 10.2 µM (inactive)
GI50 (M14): 20.9 µM (inactive)
GI50 (NCI-H226): 31.4 µM (inactive)
GI50 (MDA-MB-231): 30 µM (inactive)

CC(C)=CCC[C@@H](C)c1c2nc3ccccc3[nH]c-2c(C)c(=O)c1O
GI50 (A498): 2.12 µM (inactive)
GI50 (SK-MEL-2): 1.59 µM (inactive)
GI50 (SF-539): 2.08 µM (inactive)
GI50 (MCF7): 2.18 µM (inactive)
GI50 (RPMI-8226): 8.73 µM (inactive)
GI50 (SF-295): 0.946 µM (active)
GI50 (HOP-62): 1.19 µM (inactive)
GI50 (SK-OV-3): 2.15 µM (inactive)
GI50 (SK-MEL-5): 1.63 µM (inactive)
GI50 (OVCAR-3): 0.363 µM (active)
GI50 (COLO 205): 5.65 µM (inactive)
GI50 (HT-29): 5.32 µM (inactive)
GI50 (MDA-N): 2.09 µM (inactive)
GI50 (T47D): 1.91 µM (inactive)
GI50 (CAKI-1): 1.14 µM (inactive)
GI50 (BT-549): 2.63 µM (inactive)
GI50 (K562): 1.41 µM (inactive)
GI50 (HCC 2998): 5.45 µM (inactive)
GI50 (A549): 2.37 µM (inactive)
GI50 (786-0): 1.75 µM (inactive)
GI50 (OVCAR-4): 2.88 µM (inactive)
GI50 (UACC-257): 2.37 µM (inactive)
GI50 (Malme-3M): 1.58 µM (inactive)
GI50 (UO-31): 0.714 µM (active)
GI50 (UACC-62): 1.09 µM (active)
GI50 (NCI/ADR-RES): 0.771 µM (active)
GI50 (NCI-H23): 1.89 µM (inactive)
GI50 (SN12C): 1.24 µM (inactive)
GI50 (PC-3): 3.32 µM (inactive)
GI50 (U-251): 1.6 µM (inactive)
GI50 (Hs-578T): 2.28 µM (inactive)
GI50 (SW-620): 3.13 µM (inactive)
GI50 (SR): 3.41 µM (inactive)
GI50 (OVCAR-5): 3.52 µM (inactive)
GI50 (SNB-19): 2.5 µM (inactive)
GI50 (SK-MEL-28): 4.38 µM (inactive)
GI50 (TK-10): 2.58 µM (inactive)
GI50 (KM12): 2.45 µM (inactive)
GI50 (LOX IMVI): 1.75 µM (inactive)
GI50 (HL-60): 0.383 µM (active)
GI50 (OVCAR-8): 1.71 µM (inactive)
GI50 (DU-145): 1.61 µM (inactive)
GI50 (HCT-15): 0.236 µM
GI50 (IGROV-1): 2.07 µM (inactive)
GI50 (SF-268): 0.906 µM (active)
GI50 (HOP-92): 1.41 µM (inactive)
GI50 (MOLT-4): 1.44 µM (inactive)
GI50 (NCI-H460): 0.671 µM (active)
GI50 (MDA-MB-435): 2.73 µM (inactive)
GI50 (HCT-116): 1.36 µM (inactive)
GI50 (ACHN): 0.568 µM (active)
GI50 (RXF 393): 1.14 µM (inactive)
GI50 (SNB-75): 1.71 µM (inactive)
GI50 (CCRF-CEM): 0.27 µM (active)
GI50 (EKVX): 2.7 µM (inactive)
GI50 (M14): 1.44 µM (inactive)
GI50 (NCI-H226): 1.4 µM (inactive)
GI50 (MDA-MB-231): 1.73 µM (inactive)
